Measured values as given in patent US4629683A, “Processing silver halide photographic material with blocked agent and hydroxylamine” (Fuji Photo Film Co., Ltd., priority 1983, dated 1986).

Key:
[1] = Acceleration effect of hydroxylamine upon release of antifoggant from precursor (HPLC, half-life); format: physicochemical; set-up: key to Acceleration Effect: ratio of half-life without hydroxylamine to half-life with it; details: for t1/2 Hydroxylamine Absent / t1/2 Hydroxylamine Present: release of antifoggant; for change in releasing speed due to addition of hydroxylamine: in words, pH 10.0 and 11.0
Procedure: Measurement of Acceleration Effect of Hydroxylamine upon Release of Antifoggant from Precursor Thereof
(§1) The resulting solution was added to a mixture of 16 ml of acetonitrile and 20 ml of Britton-Robinson buffer solution (Britton-Robinson buffer solution can be prepared by mixing phosphoric acid, boric acid, acetic acid and sodium hydroxide, and of which pH can be adjusted within a pH range of 1.81 to 11.98), and allowed to react (wherein the pH of the solution was controlled by the buffer solution). After a definite time, acetic acid was added to lower the pH of the reaction mixture to 6.25 and thereby the reaction stopped. The antifoggant released was determined using high-speed liquid chromatography and therefrom the rate constant of the pseudo first-order reaction and, further, the half-life t1/2 were evaluated.
(§2) The acceleration effect of hydroxylamine was determined by comparison of the half-life value in the hydroxylamine present present case and that in the hydroxylamine-absent case and, further, compared with effects of known precursors of the kind which release antifoggants without ring-cleavage (Comparison Precursor (A-1) and Comparison Precursor (A-2)).

[2] = Acceleration effect of hydroxylamine upon release of pyrazolidones from precursors (half-life); format: physicochemical; details: for Acceleration Effect: pH 10.0, half-life hydroxylamine absent vs present; for t1/2 Hydroxylamine Absent / t1/2 Hydroxylamine Present: release of pyrazolidones; for t1/2 Hydroxylamine Absent: pH 10.0, hydroxylamine absent; for t1/2 Hydroxylamine Present: pH 10.0, hydroxylamine present
Procedure: as §1, §2
Measurement of Acceleration Effect on Hydroxylamine upon Release of Pyrazolidones from Precursors Thereof
The acceleration effects of hydroxylamine upon release of pyrazolidones were determined in the same way as in Example 1, and the results obtained are shown in Table 2 below.

[3] = pH 10.0, half-life hydroxylamine absent vs present
[4] = pH 11.0, half-life hydroxylamine absent vs present
[5] = pH 10.0, hydroxylamine present (3.8×10^-4 mole)
[6] = pH 11.0, hydroxylamine present (3.8×10^-4 mole)

SMILES | Acceleration Effect [1, 3] | Acceleration Effect [1, 4] | t1/2 Hydroxylamine Absent ([1]; pH 10.0, hydroxylamine absent) | t1/2 Hydroxylamine Present [1, 5] | t1/2 Hydroxylamine Absent ([1]; pH 11.0, hydroxylamine absent) | t1/2 Hydroxylamine Present [1, 6] | Acceleration Effect [2] | t1/2 Hydroxylamine Absent [2] | t1/2 Hydroxylamine Present [2] | change in releasing speed due to addition of hydroxylamine [1]
O=C1OC(Sc2nnnn2-c2ccccc2)(c2ccccc2)c2ccc([N+](=O)[O-])cc21 (centres unmarked) [(III)-(14)] | 27 | 25 | 9,000 sec | 340 s | 980 s | 39 s | – | – | – | –
CNC(=O)Nc1cccc(-n2nnnc2SCN2C(=O)c3ccccc3S2(=O)=O)c1 [(I)-(16)] | 35 | 18 | 4,100 sec | 120 s | 490 s | 27 s | – | – | – | –
CN(C(=O)Sc1nnnn1-c1ccccc1)c1cccc2c1COC2=O [(V)-(1)] | 25 | 27 | 53,000 sec | 2,100 sec | 6,200 sec | 230 s | – | – | – | –
O=C1CCC(=O)N1CSc1nnnn1-c1ccccc1 [(II)-(1)] | 5.2 | 2.5 | 5,700 sec | 1,200 sec | 650 s | 260 s | – | – | – | –
O=C1OC(Sc2nnnn2-c2ccccc2)c2ccccc21 (centres unmarked) [(III)-(1)] | 29 | 30 | 27,000 sec | 960 s | 3,300 sec | 110 s | – | – | – | –
O=C1c2ccccc2C(=O)N1COC1=NN(c2ccccc2)CC1 [Compound (I)-(14), 1-phenyl-3-(N-phthalimidomethyloxy)-2-pyrazoline] | – | – | – | – | – | – | 8.2 | 3,200 sec | 390 s | –
O=C1c2ccccc2S(=O)(=O)N1CSc1nnnn1-c1ccccc1 [(I)-(15)] | 37 | 16 | 3,700 sec | 100 s | 470 s | 29 s | – | – | – | –
O=C1CCN(c2ccccc2)N1CN1C(=O)c2ccccc2S1(=O)=O [Compound (I)-(18), N-(1-phenyl-3-pyrazolidinone-2-ylmethyl)saccharin] | – | – | – | – | – | – | 21 | 9,300 sec | 440 s | –
O=C1CC(Sc2nnnn2-c2ccccc2)C(=O)N1c1ccccc1 (centres unmarked) [Comparison Precursor (A-1), reference compound] | 0.61 | 0.82 | 2,600 sec | 4,200 sec | 310 s | 380 s | – | – | – | reduced the releasing speed rather than accelering it, or hardly showed any appreciable change in the releasing speed
O=C1c2ccccc2C(=O)N1CN1C(=O)CCN1c1ccccc1 [Compound (I)-(13), 1-phenyl-2-(N-phthalimidomethyl)-3-pyrazolidinone] | – | – | – | – | – | – | 3.6 | 9,400 sec | 2,600 sec | –
CN1C(=O)c2cccc(N(C)C(=O)OC3=NN(c4ccccc4)CC3(C)CO)c2C1=O (centres unmarked) [(IV)-(5)] | – | – | – | – | – | – | 6.3 | 5,600 sec | 880 s | –
O=C1OC(N2C(=O)CCN2c2ccccc2)c2ccc([N+](=O)[O-])cc21 (centres unmarked) [(III)-(7)] | – | – | – | – | – | – | 29 | 13,000 sec | 450 s | –
CC1(C)CN(c2ccccc2)N(CN2C(=O)c3ccccc3S2(=O)=O)C1=O [(I)-(19)] | – | – | – | – | – | – | 19 | 7,200 sec | 370 s | –
O=C1c2ccc([N+](=O)[O-])cc2C(=O)N1CSc1nnnn1-c1ccccc1 [(I)-(10)] | 8.1 | 3.0 | 320 s | 38 s | 37 s | 12 s | – | – | – | –
CC(CC#N)Sc1nnnn1-c1ccccc1 (centres unmarked) [Comparison Precursor (A-2), reference compound] | 1.1 | 1.1 | 25,000 sec | 23,000 sec | 2,900 sec | 2,700 sec | – | – | – | reduced the releasing speed rather than accelering it, or hardly showed any appreciable change in the releasing speed
CN1C(=O)c2cccc(N(C)C(=O)Sc3nnnn3-c3ccccc3)c2C1=O [(IV)-(2)] | 5.0 | 4.1 | 3,500 sec | 700 s | 420 s | 100 s | – | – | – | –
